The source of these data is ChEMBL document CHEMBL4033717, “Synthesis and anticancer activity of novel aza-artemisinin derivatives” (Bioorg Med Chem, 2017).

A value given as a limit tells only on which side of the number the result lay.

One experiment has as its system CCRF-CEM. In words: Anti-proliferative activity against human CEM cells after 4 days by coulter counting method. Particulars: 96 h. In kind it is functional, cell-based.
Another experiment relates to HeLa. The experiment can be described thus: Anti-proliferative activity against human HeLa cells after 3 days by coulter counting method. The format is functional, cell-based. To be noted: 72 h.
A further experiment concerns HMEC-1. The experiment can be described thus: Anti-proliferative activity against HMEC1 cells after 3 days by coulter counting method. The format is cell-based. To be noted: Homo sapiens, HMEC-1, 72 h.
The nature of experiment [1]: Selectivity ratio of IC50 for HMEC1 cells to IC50 for human CEM cells.

`C[C@@H]1CC[C@H]2[C@@H](C)C(OCCn3nnc4c3-c3ccccc3CC4)O[C@@H]3O[C@@]4(C)CC[C@@H]1[C@]32OO4` (stereo partly drawn): the IC50 was found to be 21 µM with CCRF-CEM, 20 µM in the experiment on HeLa and 35 µM with HMEC-1.
In the case of `C[C@@H]1CC[C@H]2[C@@H](C)C(=O)N(Cc3cn(C4CC(OC(=O)c5ccc(Cl)cc5)C(COC(=O)c5ccc(Cl)cc5)O4)nn3)[C@@H]3O[C@@]4(C)CC[C@@H]1[C@@]23OO4` (stereo partly drawn), the IC50 in the experiment on CCRF-CEM is 2.6 µM; in the experiment on HeLa, 6.1 µM; with HMEC-1 it was 24 µM.
Taken in the same sequence, the figures for `C[C@@H]1CC[C@H]2[C@@H](C)C(OCCn3nnc4c3C[C@@H]3CC[C@@H]5[C@H](CC[C@]6(C)[C@@H](O)CC[C@@H]56)[C@@]3(C)C4)O[C@@H]3O[C@@]4(C)CC[C@@H]1[C@]32OO4` (stereo partly drawn) were 8.9 µM, 16 µM and 28 µM.
As to `C[C@@H]1CC[C@H]2[C@@H](C)C(OCCn3nncc3-c3ccc(Br)c(Br)c3)O[C@@H]3O[C@@]4(C)CC[C@@H]1[C@]32OO4` (stereo partly drawn), the IC50 worked out at 10 µM with CCRF-CEM, 11 µM with HeLa and 26 µM with HMEC-1.
For the molecule `COc1cc(-c2cnnn2CCOC2O[C@@H]3O[C@@]4(C)CC[C@H]5[C@H](C)CC[C@@H]([C@H]2C)[C@@]35OO4)ccc1O` (stereo partly drawn), the IC50 was 39 µM in the experiment with CCRF-CEM, 23 µM with HeLa and 62 µM in the experiment on HMEC-1.
As for `C#CCN1C(=O)[C@H](C)[C@@H]2CC[C@@H](C)[C@@H]3CC[C@@]4(C)OO[C@]32[C@H]1O4`, the IC50 in the experiment with CCRF-CEM came to 104 µM; in the experiment with HeLa it was 98 µM; with HMEC-1, 241 µM.
The like results for `C[C@@H]1CC[C@H]2[C@@H](C)C(=O)N[C@@H]3O[C@@]4(C)CC[C@@H]1[C@]32OO4` were, in that order, 150 µM, 147 µM and above 250 µM.
Taken in the same sequence, the figures for `C[C@@H]1CC[C@H]2[C@@H](C)C(OCCn3nncc3-c3cccc4ccccc34)O[C@@H]3O[C@@]4(C)CC[C@@H]1[C@]32OO4` (stereo partly drawn) were 11 µM, 12 µM and 24 µM.
On to `COc1cc(-n2cc(CN3C(=O)[C@H](C)[C@@H]4CC[C@@H](C)[C@@H]5CC[C@@]6(C)OO[C@]54[C@H]3O6)nn2)cc(OC)c1OC`, for which the IC50 in the experiment with CCRF-CEM worked out at 17 µM; with HeLa it was 19 µM; in the experiment on HMEC-1, 155 µM. For the same molecule, the “Ratio IC50” value in experiment [1] is 8 - 50.
As to `COc1cc(Cn2nnc3c2CCC(C(=O)O[C@@H]2O[C@@H]4O[C@@]5(C)CC[C@H]6[C@H](C)CC[C@@H]([C@H]2C)[C@@]46OO5)C3)cc(OC)c1OC` (stereo partly drawn), the IC50 in the experiment with CCRF-CEM came to 4.3 µM; in the experiment on HeLa, 21 µM; in the experiment on HMEC-1 it was 40 µM.
In the case of `Cc1ccc(Cn2nnc3c2CCC(C(=O)O[C@@H]2O[C@@H]4O[C@@]5(C)CC[C@H]6[C@H](C)CC[C@@H]([C@H]2C)[C@@]46OO5)C3)cc1` (stereo partly drawn), the IC50 is 2.7 µM in the experiment on CCRF-CEM, 11 µM with HeLa and 34 µM in the experiment on HMEC-1.
Take `C[C@@H]1CC[C@H]2[C@@H](C)C(OCCn3nnc4c3CCc3ccc([N+](=O)[O-])cc3-4)O[C@@H]3O[C@@]4(C)CC[C@@H]1[C@]32OO4` (stereo partly drawn): the IC50 in the experiment on CCRF-CEM worked out at 95 µM; in the experiment on HeLa, 175 µM; with HMEC-1, 160 µM.
With `C[C@@H]1CC[C@H]2[C@@H](C)C(OCCn3nnc4c3CCN(Cc3ccccc3)C4)O[C@@H]3O[C@@]4(C)CC[C@@H]1[C@]32OO4` (stereo partly drawn), the IC50 with CCRF-CEM is 20 µM; in the experiment with HeLa it was 19 µM; in the experiment with HMEC-1, 30 µM.
`C[C@@H]1CC[C@H]2[C@@H](C)C(OCCn3nncc3-c3ccccc3)O[C@@H]3O[C@@]4(C)CC[C@@H]1[C@]32OO4` (stereo partly drawn): the IC50 was found to be 25 µM in the experiment on CCRF-CEM, 37 µM in the experiment on HeLa and 62 µM in the experiment with HMEC-1.
As for `C[C@@H]1CC[C@H]2[C@@H](C)C(=O)N(Cc3cn(-c4ccc(C#N)cc4)nn3)[C@@H]3O[C@@]4(C)CC[C@@H]1[C@@]23OO4`, the results for the concentration for half-maximal inhibition (IC50) with CCRF-CEM, in the experiment on HeLa and with HMEC-1 were 18 µM, 36 µM and 26 µM, respectively.
Take `COc1ccc2c(c1)-c1nnn(CCOC3O[C@@H]4O[C@@]5(C)CC[C@H]6[C@H](C)CC[C@@H]([C@H]3C)[C@@]46OO5)c1CC2` (stereo partly drawn): the IC50 in the experiment with CCRF-CEM is 128 µM; with HeLa, 143 µM; with HMEC-1, 105 µM.
Take `C[C@@H]1CC[C@H]2[C@@H](C)C(OCCn3nnc4c3CCc3ccccc3-4)O[C@@H]3O[C@@]4(C)CC[C@@H]1[C@]32OO4` (stereo partly drawn): the IC50 in the experiment on CCRF-CEM is 157 µM; with HeLa it was above 250 µM; in the experiment with HMEC-1, above 250 µM.
Consider `C=C(C)[C@@H]1CC[C@]2(C(=O)O)CC[C@]3(C)[C@H](CC[C@@H]4[C@@]5(C)Cc6nnn(CCOC7O[C@@H]8O[C@@]9(C)CC[C@H]%10[C@H](C)CC[C@@H]([C@H]7C)[C@@]8%10OO9)c6C(C)(C)[C@@H]5CC[C@]43C)[C@@H]12` (stereo partly drawn), for which the values for the IC50 in the experiment on CCRF-CEM, in the experiment with HeLa and in the experiment on HMEC-1 were 5 µM, 24 µM and 121 µM, respectively.
With `C[C@@H]1CC[C@H]2[C@@H](C)C(=O)N(Cc3cn(C4OC(COCc5ccccc5)[C@H](OCc5ccccc5)[C@@H]4OCc4ccccc4)nn3)[C@@H]3O[C@@]4(C)CC[C@@H]1[C@@]23OO4` (stereo partly drawn), the results for the IC50 in the experiment on CCRF-CEM, in the experiment with HeLa and in the experiment on HMEC-1 were above 250 µM, at least 250 µM and above 250 µM, respectively.
Consider `C[C@H]1[C@H](OC(=O)C2CCc3c(nnn3CCc3c[nH]c4ccccc34)C2)O[C@@H]2O[C@@]3(C)CC[C@H]4[C@H](C)CC[C@@H]1[C@@]24OO3` (stereo partly drawn), for which the IC50 in the experiment with CCRF-CEM was 3.9 µM; in the experiment with HeLa, 12 µM; in the experiment with HMEC-1 it was 40 µM.
Taken in the same sequence, the figures for `COC(=O)Cn1cc(CN2C(=O)[C@H](C)[C@@H]3CC[C@@H](C)[C@@H]4CC[C@@]5(C)OO[C@]43[C@H]2O5)nn1` were at least 250 µM, above 250 µM and above 250 µM.
Take `CC(C)c1cccc(-n2cc(CN3C(=O)[C@H](C)[C@@H]4CC[C@@H](C)[C@@H]5CC[C@@]6(C)OO[C@]54[C@H]3O6)nn2)c1`: the results for the IC50 in the experiment with CCRF-CEM, in the experiment with HeLa and in the experiment on HMEC-1 were 0.92 µM, 1.2 µM and 30 µM, respectively. Besides, the “Ratio IC50” value in experiment [1] is on record as 30.
Take `COc1cc2c(cc1OC)-c1nnn(CCOC3O[C@@H]4O[C@@]5(C)CC[C@H]6[C@H](C)CC[C@@H]([C@H]3C)[C@@]46OO5)c1CC2` (stereo partly drawn): the IC50 in the experiment on CCRF-CEM was found to be 30 µM; in the experiment on HeLa it was 36 µM; with HMEC-1, 150 µM.
`C[C@H]1[C@H](OC(=O)C2CCc3c(nnn3Cc3ccc4c(c3)OCO4)C2)O[C@@H]2O[C@@]3(C)CC[C@H]4[C@H](C)CC[C@@H]1[C@@]24OO3` (stereo partly drawn): the figures for the IC50 in the experiment with CCRF-CEM, in the experiment with HeLa and with HMEC-1 were 2.8 µM, 11 µM and 35 µM, respectively.
Regarding `C[C@@H]1CC[C@H]2[C@@H](C)C(=O)N(Cc3cn(-c4ccccc4)nn3)[C@@H]3O[C@@]4(C)CC[C@@H]1[C@@]23OO4`, the IC50 is 5.1 µM in the experiment with CCRF-CEM, 36 µM in the experiment on HeLa and above 250 µM in the experiment on HMEC-1. Also, the “Ratio IC50” value in experiment [1] is on record as 8 - 50.

What is called IC50 is the concentration at which inhibition is half-maximal. The low end stands for inhibition by little substance, the high end for a need for much substance.
